Like-named read-outs stand apart in the source and are kept apart here.
Key:
[1] = tested on: HIV-1 IIIB (wild-type); assay: HIV inhibition assay in TZM-bl cells, wild-type; assay type: cell-based; details: Human immunodeficiency virus 1, IIIB; for IC50: Table 4, TZM-bl, read-out: IC50 (TZM, WT)
Description: (§1) Cells and virus culture: TZM-bl cells (42), HIV-1 IIIB virus (43-45) and HIV-1 IIIB (A17 variant) virus (46) as well are the NNRTI resistant mutants (strain NL4-3) (47) were obtained from the NIH HIV Reagent Program. H9 [derivative of HuT 78]cells (ATCC® HTB176™) were obtained from the American Type Culture Collection (Manassas, Virginia, United States of America). These viruses were grown in H9 cells to high titer, which was tested using a HIV p24 (high sensitivity) The detection kit used was sold under the tradename ALPHALISA® Detection Kit (PerkinElmer, Waltham, Massachusetts, United States of America). The viruses were concentrated using Lenti-X Concentrator (Takara Bio USA, Inc., Mountain View, California, United States of America). Infections of TZM-bl cells with either virus was facilitated with 15 μg/mL DEAE-dextran.
(§2) Compounds were serially diluted starting with 10 mM stocks in DMSO. DMSO concentrations were kept the same for all dilutions used within an assay (either 0.005% or 0.05% depending on highest concentration used). Duplicate 96-well plates were set up with 25 μL compound dilution, 25 μL virus, and 50 μL TZM-bl cells (2×10^5/mL) with DEAE-dextran and incubated at 37° C. 5% CO2 for 48 hr. All compounds were tested in triplicate, with single wells of efavirenz dilutions on each plate. All plates had 3-5 control wells without compound, 1 control well with no cells, and 1 control well with a highly toxic level of DMSO (9%). Inhibition assays were set up in clear tissue-culture treated plates with lysates moved to black assay plates or were set up in black tissue culture-treated plates. Medium was removed and the cells were lysed with Glo Lysis Buffer (Promega, Madison, Wisconsin, United States of America). Luciferase Assay System reagent (Promega, Madison, Wisconsin, United States of America) was added to cells and relative light units (RLU) was measured using an EnSpire instrument (PerkinElmer, Waltham, Massachusetts, United States of America). Toxicity assays were set up in clear tissue culture-treated plates. CellTiter-Blue Cell Viability Assay reagent (Promega) was added to the wells after 46 hr incubation, followed by 2 hr incubation. Sodium lauryl sulfate was added to 1.5% to stop the reaction and the plates were measured for fluorescence (560 nmEx/590 nmEm) using an EnSpire instrument (PerkinElmer, Waltham, Massachusetts, United States of America).

[2] = tested on: HIV-1 IIIB A17 variant (Y181C/K103N); assay: HIV inhibition assay in TZM-bl cells, A17 variant; assay type: cell-based; details: Human immunodeficiency virus 1, IIIB, TZM-bl; for IC50: read-out: IC50 (TZM, A17), Table 4, TZM-bl
Description: as §1, §2

[3] = Toxicity assay in TZM-bl cells; assay type: cell-based; details: human
Description: as §2

[4] = biological target: T1, HIV I reverse transcriptase (Human immunodeficiency virus type 1 group M subtype B, UniProt P03366); assay: Reverse transcriptase inhibition assay (Roche kit, ELISA); assay type: biochemical
T1 construct: purchased Roche
Description: NNRTI assay methods: Inhibition of HIV I reverse transcriptase was assessed via a kit from Roche (Indianapolis-Marion County, Indiana, United States of America) using the manufacture's protocol (500 μM final reverse transcriptase reaction amount). […] DMSO concentrations were kept the same for all dilutions used within an assay (0.05%). Final compound concentrations ranged from 5000 nM-0.05 nM with 2-fold serial dilutions. 96-well plates were set up with 20 μL compound dilution, 20 μL reverse transcriptase, and 20 μL template/nucleotides and incubated at 37° C. 5% CO2 for 1 hr in a reaction plate. 50 μL of each reaction was then transferred to a streptavidin conjugated 96-well plate and an ELISA assay was run based on manufacture's protocol. All compounds were tested in sextuplicate, with single wells of efavirenz dilutions on each plate.

[5] = tested on: primary mouse neuron cultures; assay: Calcium imaging in primary neurons; assay type: cell-based; details: 1 μM
Description: The direct effects of the antiretroviral compounds were tested on primary rat and mouse neurons cultured on coverslips. Neurons at 14-18 days in vitro were loaded with the calcium indicator, Fluo-4 AM (2 μM, Molecular Probes, Inc., Eugene, Oregon, United States of America) in aCSF (aCSF: NaCl […], KCl 5.0 mM, CaCl2 2.3 mM, MgCl2 1.3 mM, glucose 20 mM). After 30 minutes of dye loading, the coverslip was transferred to a specialized stage for imaging. Cells were maintained in aCSF and time-lapse digital images were automatically captured on an Olympus IX71 microscope using software sold under the tradename METAMORPH® (Molecular Devices, San Jose, California, United States of America). Images were captured with a 40 msec exposure every 6 seconds for 6 minutes to assess acute effects and every minute for 60 minutes to assess delayed effects. Three pre-stimulation measurements were taken to establish basal levels of fluorescence at the beginning of each experiment. After collection of the third image, neurons the antiretroviral compound or vehicle diluted from the stock vial into aCSF was added to the neurons at the indicated final concentration. Baseline fluorescence was subtracted to correct for cell-to-cell differences in dye loading and intrinsic fluorescence. Changes in fluorescence at each time point were averaged across all cells from at least triplicate runs to provide an indication of the “typical” response. In some cases, individual cell response patterns are shown where the average masked important cell-specific profiles. All compounds were tested at 1 μM.

Cc1cc(/C=C/C#N)cc(C)c1Nc1ccnc(Nc2ccc(C#N)cc2)n1 [Rilpivirine, rilpivirine, reference compound]
IC50 [1]: 0.351 nM | EC50 ([1]; text b494, FIG. 2F, read-out: antiviral activity against wildtype, EC50): 0.35 nM | IC50 [2]: 0.817 nM | EC50 ([2]; read-out: activity against the A17 double mutant (Y181C/K103N), EC50): 1.58 nM | CC50 at 48 h [3]: 112000 nM | EC50 [4]: 376 nM | IC50 [4]: 1180 nM | acute spike frequency / acute signaling [5]: decrease

O=C1Nc2ccc(Cl)cc2[C@@](C#CC2CC2)(C(F)(F)F)O1 [Efavirenz, efavirenz]
IC50 [1]: 0.658 nM | IC50 [2]: 17 nM | CC50 at 48 h ([3]; TZM-bl cells, Table 4, TZM-bl, read-out: CC50 (TZM)): > 100000 nM | acute spike frequency / acute signaling [5]: trend towards a reduced acute signaling | delayed spike frequency [5]: increase | total calcium accumulation [5]: most dramatic increase | toxic effects by calcium imaging, overall [5]: seemed to have some toxic effects
